Data from patent publication US8778963B2, “Hydroxylamine and oxime substituted imidazoquinolines, imidazopyridines, and imidazonaphthyridines” (3M Innovative Properties Company, priority 2003, dated 2014).
Counter-ions that a name gives are not always drawn.

SMILES | melting point [°C]
CCOCc1nc2c(N)nc3ccccc3c2n1CCCC(C)=NOCc1ccccc1 (as salt: hydrochloride) [Example 36, 5-(4-Amino-2-ethoxymethyl-1H-imidazo[4,5-c]quinolin-1-yl)pentan-2-one O-benzyloxime hydrochloride] | 184 to 186
CCCc1nc2c(N)nc3ccccc3c2n1CCCCN(O)C(C)=O [Example 43, N-[4-(4-Amino-2-propyl-1H-imidazo[4,5-c]quinolin-1-yl)butyl]-N-hydroxyacetamide] | 191 to 193
CCCc1nc2c(N)nc3ccccc3c2n1CCCCN(O)C(=O)NC(C)C [Example 44, N-[4-(4-Amino-2-propyl-1H-imidazo[4,5-c]quinolin-1-yl)butyl]-N-hydroxy-N′-isopropylurea] | 158 to 160
CCOCc1nc2c(N)nc3ccccc3c2n1CCCC(C)=NO [Example 34, 5-(4-Amino-2-ethoxymethyl-1H-imidazo[4,5-c]quinolin-1-yl)pentan-2-one oxime] | 220 to 223
CCCc1nc2c(N)nc3ccccc3c2n1CCCC(C)N(OC)C(=O)NCC (stereo not shown) [Example 12, 1-[4-(4-Amino-2-propyl-1H-imidazo[4,5-c]quinolin-1-yl)-1-methylbutyl]-3-ethyl-1-methoxyurea] | 193 to 194
CCCc1nc2c(N)nc(C)c(C)c2n1CCCCN(O)C(C)=O [Example 15, N-[4-(4-Amino-6,7-dimethyl-2-propyl-1-imidazo[4,5-c]pyridin-1-yl)butyl]-N-hydroxyacetamide] | 164 to 166
CCCc1nc2c(N)nc3cccnc3c2n1CCCCN(OC)C(=O)c1ccccc1 [Example 2, N-[4-(4-Amino-2-propyl-1H-imidazo[4,5-c][1,5]naphthyridin-1-yl)butyl]-N-methoxybenzamide] | 125 to 127
CCCc1nc2c(N)nc(C)c(C)c2n1CCCCN(O)C(=O)Nc1ccccc1 [Example 24, 1-[4-(4-Amino-6,7-dimethyl-2-propyl-1H-imidazo[4,5-c]pyridine-1-yl)butyl]-1-hydroxy-3-phenylurea] | 159 to 160.5
CCCCc1nc2c(N)nc3ccccc3c2n1CCCC(=NO)c1ccccc1 [Example 28, 4-(4-Amino-2-butyl-1H-imidazo[4,5-c]quinolin-1-yl)-1-phenylbutan-1-one oxime] | 242 to 244
CON=C(C)CC(C)(C)Cn1cnc2c(N)nc3ccccc3c21 [Example 41, 5-(4-Amino-1H-imidazo[4,5-c]quinolin-1-yl)-4,4-dimethylpentan-2-one O-methyloxime] | 148 to 150
CCCc1nc2c(N)nc3ccccc3c2n1CC(C)(C)CC(C)=NOC [Example 40, 5-(4-Amino-2-propyl-1H-imidazo[4,5-c]quinolin-1-yl)-4,4-dimethylpentan-2-one O-methyloxime] | 196 to 198
CCCc1nc2c(N)nc3ccccc3c2n1CCCCN(OC)C(C)=O [Example 6, N-[4-(4-Amino-2-propyl-1H-imidazo[4,5-c]quinolin-1-yl)butyl]-N-methoxyacetamide] | 138 to 140
CC(CCCn1c(C)nc2c(N)nc3ccccc3c21)=NO [Example 30, 5-(4-Amino-2-methyl-1H-imidazo[4,5-c]quinolin-1-yl)pentan-2-one oxime] | 264 to 266
CCCc1nc2c(N)nc(C)c(C)c2n1CCCCN(O)C(=O)OC(C)(C)C [Example 14, N-[4-(4-Amino-6,7-dimethyl-2-propyl-1H-imidazo[4,5-c]pyridin-1-yl)butyl]-N-[tert-butyl carbamate]hydroxylamine] | 157 to 158.5
CCOCc1nc2c(N)nc3cccnc3c2n1CCCCN(OC)C(=O)NC(C)C [Example 21, 1-[4-(4-Amino-2-ethoxymethyl-1H-imidazo[4,5-c][1,5]naphthyridin-1-yl)butyl]-3-isopropyl-1-methoxyurea] | 146 to 147
CCOCc1nc2c(N)nc3ccccc3c2n1CCCC(C)N(OC)S(C)(=O)=O (stereo not shown) [Example 13, N-[4-(4-Amino-2-ethoxymethyl-1H-imidazo[4,5-c]quinolin-1-yl)-1-methylbutyl]-N-methoxymethanesulfonamide] | 146 to 148
CCCc1nc2c(N)nc3ccccc3c2n1CCCCN(OC)C(N)=O [Example 7, 1-[4-(4-Amino-2-propyl-1H-imidazo[4,5-c]quinolin-1-yl)butyl]-1-methoxyurea] | 179 to 181
CCCc1nc2c(N)nc3cccnc3c2n1CCCC(C)N(OC)C(C)=O (stereo not shown) [Example 22, N-Methoxy-N-[4-(4-amino-2-propyl-1H-imidazo[4,5-c][1,5]naphthyridin-1-yl)1-methyl-butyl]acetamide] | 158 to 159
CO/N=C/CCCn1c(C)nc2c(N)nc3ccccc3c21 [Example 45, 4-(4-Amino-2-methyl-1H-imidazo[4,5-c]quinolin-1-yl)butanal O-methyloxime] | 153 to 155
CCCc1nc2c(N)nc(C)c(C)c2n1CCCCN(OC)C(=O)c1ccccc1 [Example 27, N-Methoxy-N-[4-(4-amino-6,7-dimethyl-2-propyl-1H-imidazo[4,5-c]pyridin-1-yl)-butyl]benzamide] | 136 to 137
CCCc1nc2c(N)nc(C)c(C)c2n1CCCCN(OC)C(=O)OC(C)(C)C [Example 26, N-[4-(4-Amino-6,7-dimethyl-2-propyl-1H-imidazo[4,5-c]pyridin-1-yl)butyl]-N-[tert-butyl-carbamate]-O-methylhydroxylamine] | 127 to 128
CCCCCCC(CCCn1c(CCC)nc2c(N)nc3ccccc3c21)=NO [Example 38, 1-(4-Amino-2-propyl-1H-imidazo[4,5-c]quinolin-1-yl)decan-4-one oxime] | 113 to 115
